# Experimental data: EP0103895A2, “Novel hydroxylamine derivatives, production and use thereof” (MEIJI SEIKA KABUSHIKI KAISHA, priority 1982, dated 1984)
# Values joined by “and” are separate entries in the source; they are usually repeats but may differ in a detail not shown here. Equal entries are not always repeated. Where two headings read alike, the source gives them in different places.
# Columns and labels:
# [1] = system: fowl roundworm (Ascaridia galli); assay: Anthelmintic test in chickens artificially infected with fowl roundworm, single oral dose in gelatin capsule, worm bodies counted within 48 hours (Test Examples A1, B1, C1, D1); format: in vivo; conditions: Ascaridia galli, po, 48 h, read-out: Anthelmintic effect after 48 hours
# Outline: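 Anthelmintic percentage derived from counts of worms passed within 48 h plus worms left in the intestine after killing at 48 h. Infection confirmed by fecal examination in three-bird groups; compound given orally once in gelatin capsules at 10/20 (A1, B1), 30/50 (C1) or 15/30 (D1) mg/kg.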
# [2] = system: fowl roundworm (As. galli); assay: Anthelmintic test in chickens artificially infected with fowl roundworm, compound added to feed, E.P.G. and worm count up to 21st day (Test Examples A2, B2, C2, D2); format: in vivo, Ascaridia galli
# [3] = system: swine roundworm (Ascaris suum); assay: Test of anthelmintic effect in naturally infected pigs, E.P.G. on 7th day: swine roundworm (Test Examples A9, B9, C9, D9); format: in vivo
# Protocol: (§1) Six pigs infected with swine roundworm and swine whipworm (naturally infected pigs) were employed in groups each of two pigs.
# (§2) As a control, only gelatin capsules were administered orally to the two pigs.
# (§3) Before administration and on the 7th day after. administration, fecal matter testing was conducted to calculate the E.P.G., and the anthelmintic effect was judged by the changing of the E.P.G. to negative'.
# (§4) 50 mg of each compound was placed in a gelatin capsule per 1 Kg of body weight and administered orally to each of the two pigs. As control, only gelatin capsules were administered orally to two pigs.
# (§5) 30 mg of each compound was placed in a gelatin capsule per 1 Kg of body weight and administered orally to each of the two pigs. As control, only gelatin capsules were administered orally to two pigs.
# [4] = system: swine whipworm (Trichuris suis); assay: Test of anthelmintic effect in naturally infected pigs, E.P.G. on 7th day: swine whipworm (Test Examples A9, B9, C9, D9); format: in vivo
# Protocol: as §1, §2, §3, §4, §5
# [5] = system: Liver fluke; Fasciola hepatica (F. hepatica); assay: Test of anthelmintic effect against rat infected experimentally with liver fluke (Test Examples A11, B11, C11, D11); format: in vivo; conditions: for anthelmintic effect: rats, five administrations in a dose of 50 mg/Kg each
# [6] = system: Diphyllobothrium erinacei; assay: Test of anthelmintic effect against Diphyllobothrium erinacei (tapeworm) in experimentally infected cats (Test Examples A5, B5, C5, D5)
# [7] = system: canine whipworm (Trichuris vulpis); assay: Anthelmintic test in naturally infected dogs with mixed infections, E.P.G. on 7th day: canine whipworm (Test Examples A3, B3, C3, D3); format: in vivo; conditions: for Change of E.P.G. 7th day: one administration; for anthelmintic effect: dogs with mixed infections (Trichuris vulpis, Ancylostoma caninum, Toxocara canis; statement covers all three)
# Protocol: (§6) Three dogs with mixed infections by canine whipworm (Trichuris vulpis), canine hookworm (Ancylostoma caninum) and canine roundworm (Toxocara canis) (naturally infected dogs) were employed in a group of two and a group of one.
# (§7) The compound provided for the test was Compound No.Al, and 20 mg/Kg thereof was placed in a gelatin capsule per 1 Kg of body weight, and administered orally to the two dogs. As control, only a gelatin capsule was administered orally to the one dog.
# (§8) Before administration and on the 7th day after administration, fecal matter testing was conducted to calculate the E.P.G., and the anthelmintic effect was judged by the changing of the E.P.G. to negative.
# (§9) As control, only gelatin capsules were administered orally to the one dog.
# (§10) The same method as in Test Example A3, but the compound provided for the test was Compound No. Cl. 30 mg/Kg of this compound was placed in a gelatin capsule per 1 Kg of body weight and administered orally to the two dogs. As control, only gelatin capsules were administered orally to the one dog.
# [8] = system: canine hookworm (Ancylostoma caninum); assay: Anthelmintic test in naturally infected dogs with mixed infections, E.P.G. on 7th day: canine hookworm (Test Examples A3, B3, C3, D3); format: in vivo; conditions: dog; for Change of E.P.G. 7th day: one administration
# Protocol: as §6, §7, §8, §9, §10
# [9] = system: canine roundworm (Toxocara canis); assay: Anthelmintic test in naturally infected dogs with mixed infections, E.P.G. on 7th day: canine roundworm (Test Examples A3, B3, C3, D3); format: in vivo; conditions: dog; for Change of E.P.G. 7th day: one administration
# Protocol: as §6, §7, §8, §9, §10
# [10] = system: stomach worm (Haemonchus controtus); assay: Anthelmintic test against cow stomach worm in naturally infected cows, E.P.G. on 7th day (Test Examples A6, B6, C6, D6); format: in vivo; conditions: for Change of E.P.G. 7th day / Change of E.P.G. Before administration: cow, Haemonchus controtus; for Change of E.P.G. 7th day: one administration; for anthelmintic effect: cows
# Protocol: Three cows infected with stomach worm (naturally infected cows) were employed by grouping them into a group of two and a group of one.
# (§11) As control, only gelatin capsules were administered orally to the one cow.
# as §8, §11, §11
# [11] = system: canine filaria; Dirofilaria immitis; assay: Test of anthelmintic effect against canine filaria in naturally infected dogs, subcutaneous injection, microfilaria in blood and adult filaria at autopsy (Test Examples A10, B10, C10, D10); format: in vivo; conditions: for inhibition in vivo at 30 mg/kg: Dirofilaria immitis, sc, 240 h
# [12] = system: Trichostrongylidae (Trichostrongylus colubriformis); assay: Anthelmintic test against sheep Trichostrongylidae in naturally infected sheep, E.P.G. on 7th day (Test Examples A7, B7, C7, D7); format: in vivo
# Protocol: Two sheep infected with Trichostrongylidae (naturally infected sheep) were employed.
# The compound provided for the test was Compound No. Al, 15 mg of which was placed in a gelatin capsule per 1 Kg of body weight and administered orally to one of the sheep. As a control, only gelatin capsules were administered orally to the other sheep.
# as §8
# As control, only gelatin capsules were administered orally to the other sheep.
# As control, only gelatin capsule was administered orally to the other sheep.
# [13] = chicken, 30 mg/Kg oral in gelatin capsule, chickens No.1-3
# [14] = Ascaridia galli, feed or water, 504 h, chicken, 25 ppm in feed, read-out: Anthelmintic effect
# [15] = Ascaridia galli, feed or water, 504 h, chicken, 50 ppm in feed, read-out: Anthelmintic effect
# [16] = 30 mg/Kg oral in gelatin capsule
# [17] = before 30 mg/Kg oral (baseline)
structure (smiles),measurement,setting,value
"C=CCN(OCCCC)C(=O)c1ccccc1 [Compound B19, N-allyl-N-benzoyl-0-butylhydroxylamine]",inhibition in vivo at 30 mg/kg,"[1]; chickens, 30 mg/Kg orally in gelatin capsule, one value per chicken (No.1-3)",100%
same,inhibition in vivo at 50 mg/kg,"[1]; chickens, 50 mg/Kg orally in gelatin capsule, one value per chicken (No.1-3)",100%
same,inhibition in vivo at 20 ppm,"[2]; Ascaridia galli, po, 504 h, chickens, 20 ppm added to feed, worm count on 21st day, one value per chicken, read-out: Anthelmintic effect",80 to 90%
same,inhibition in vivo at 50 ppm,"[2]; Ascaridia galli, po, 504 h, chickens, 50 ppm added to feed, worm count on 21st day, one value per chicken, read-out: Anthelmintic effect",100%
same,anthelmintic effect,"[3]; pigs infected with swine roundworm and swine whipworm (statement covers both), one administration of 50 mg/Kg",marked anthelmintic effect
same,Change of E.P.G. 7th day,"[3]; pigs, 50 mg/Kg orally once, Ascaris suum, one value per pig",0 E.P.G.
same,Change of E.P.G. 7th day,"[4]; pigs, 50 mg/Kg orally once, one value per pig",0 E.P.G.
same,Condition of fluke body,"[5]; rat, 50 mg/Kg x 5",dead
same,Presence or absence of fluke egg in fecal matter On 21st day after the last administration,"[5]; rat, 50 mg/Kg x 5",-
same,anthelmintic effect,[5],marked antihelmintic effect
same,Number of worm bodies remaining in enteron,"[6]; cats infected with 5 plerocercoids, 50 mg/Kg x 5 times orally, autopsy ten days after administration, one value per cat",0
same,Worm egg detection on 10th day after administration,"[6]; cats, 50 mg/Kg x 5 orally, one value per cat (Table B7)",-
same,anthelmintic effect,"[6]; cats, 5 continuous administrations of 50 mg/Kg",marked anthelmintic effects
"C=CCON(CC=C)C(C)=O [Compound C1, N,O-diallyl-N-acetylhydroxyl- amine]",inhibition in vivo at 30 mg/kg,[1]; [13],100%
same,inhibition in vivo at 50 mg/kg,"[1]; chicken, 50 mg/Kg oral in gelatin capsule, chickens No.1-3",100%
same,inhibition in vivo at 25 ppm,[2]; [14],100%
same,inhibition in vivo at 50 ppm,[2]; [15],100%
same,Change of E.P.G. 21st day,"[2]; chicken, 25 ppm in feed",0
same,Change of E.P.G. 21st day,"[2]; chicken, 50 ppm in feed",0
same,Change of E.P.G. 7th day,"[7]; dog, Trichuris vulpis, 30 mg/Kg oral in gelatin capsule",0
same,Change of E.P.G. Before administration,"[7]; dog, Trichuris vulpis, before 30 mg/Kg oral (baseline)","2,300 and 4,200"
same,anthelmintic effect,[7]; one administration of 30 mg/Kg,marked anthelmintic effect
same,Change of E.P.G. 7th day,[8]; [16],0
same,Change of E.P.G. Before administration,[8]; [17],"4,500 and 6,600"
same,Change of E.P.G. 7th day,[9]; [16],0
same,Change of E.P.G. Before administration,[9]; [17],"3,300 and 3,100"
same,Change of E.P.G. 7th day,[10]; 20 mg/Kg oral in gelatin capsule,0
same,Change of E.P.G. Before administration,[10]; before 20 mg/Kg oral (baseline),"2,200 and 1,400"
same,anthelmintic effect,[10]; one administration of 20 mg/Kg,marked anthelmintic effect
same,inhibition in vivo at 30 mg/kg,"[11]; dog, 30 mg/Kg x 3, subcutaneous injection, read-out: Effect on adult filaria: Percent of worms killed",86%
same,inhibition in vivo at 30 mg/kg,"[11]; dogs, administration of 30 mg/Kg repeated three times, given as about 50% or more, read-out: anthelmintic effect against adult filaria",≥ 50%
same,Number of microfilaria/20 µl On 10th day after the last administration,"[11]; dog, 30 mg/Kg x 3, subcutaneous injection, suspension in 1% Tween 80",0 /20 µl
same,Effect on adult filaria: Number of worms killed/ Total parasite,"[11]; dog, 30 mg/Kg x 3, subcutaneous injection, 30 mg/kg",13/15 and 16/21
same,anthelmintic effect against microfilaria (mf),"[11]; dogs, administration of 30 mg/Kg repeated three times",marked anthelmintic effect
"C=CCNOCC.Cl [Compound D1, N-allyl-O-ethylhydroxylamine hydrochloride]",inhibition in vivo at 15 mg/kg,"[1]; chicken, 15 mg/Kg oral in gelatin capsule, chickens No.1-3",80 to 90%
same,inhibition in vivo at 30 mg/kg,[1]; [13],100%
same,inhibition in vivo at 25 ppm,[2]; [14],80 to 90%
same,inhibition in vivo at 50 ppm,[2]; [15],100%
same,Change of E.P.G. 7th day,[10]; 15 mg/Kg,0
same,Change of E.P.G. Before administration,"[10]; before 15 mg/Kg (baseline), hydrochloride","3,700 and 5,400"
same,anthelmintic effect,[10]; one administration of 15 mg/Kg,marked anthelmintic effect
same,Change of E.P.G. 7th day,"[12]; Trichostrongylus colubriformis, 15 mg/Kg, one administration",0
same,Change of E.P.G. Before administration,"[12]; Trichostrongylus colubriformis, before 15 mg/Kg (baseline)","2,900"
same,anthelmintic effect,[12]; one administration of 15 mg/Kg,marked anthelmintic effect
same,Change of E.P.G. 7th day,"[3]; pig, Ascaris suum, 20 mg/Kg, one administration",0
same,Change of E.P.G. Before administration,"[3]; pig, Ascaris suum, before 20 mg/Kg (baseline), hydrochloride","2,700 and 3,100"
same,Change of E.P.G. 7th day,"[4]; pig, 20 mg/Kg, one administration",0
same,Change of E.P.G. Before administration,"[4]; pig, before 20 mg/Kg (baseline), hydrochloride","6,600 and 4,200"
"C#CCNOCC=C.Cl [Compound D14, N-propargyl-O-allylhydroxylamine hydrochloride]",inhibition in vivo at 25 ppm,[2]; [14],80 to 90%
same,inhibition in vivo at 50 ppm,[2]; [15],100%
same,Change of E.P.G. 7th day,"[7]; dog, Trichuris vulpis, 20 mg/Kg",0
same,anthelmintic effect,[7]; one administration of 20 mg/Kg,marked anthelmintic effect
same,Change of E.P.G. 7th day,[8]; 20 mg/Kg,0
same,Change of E.P.G. Before administration,"[8]; before 20 mg/Kg (baseline), hydrochloride","3,300 and 6,800"
same,Change of E.P.G. 7th day,[9]; 20 mg/Kg,0
same,Condition of fluke bodies,"[5]; rat, 50 mg/Kg x 5",dead
same,Presence or absence of fluke egg in fecal matter On 21st day after the last administration,"[5]; rat, 50 mg/Kg x 5",-
same,anthelmintic effect,[5],marked anthelmintic effect
